From PubChem BioAssay (NCI)
Where “and” joins values, the source holds several entries; their conditions need not be identical. Equal values may be shown once.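 In this assay, cells in 96-well plates receive the compound at five concentrations for 48 hours. Endpoints are linearly interpolated between the surrounding concentrations. The concentration for full growth arrest is given as TGI.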

What was measured:
Test in all cases: NCI anticancer screen, dose series, 48 h
SK-OV-3 ovarian = tested on: SK-OV-3 ovarian
K-562 leukemia = tested on: K-562 leukemia
U251 CNS = tested on: U251 CNS
SF-268 CNS = tested on: SF-268 CNS

Compound: CC(=O)Nc1ccc(-c2nc3ccccc3s2)cc1I
- TGI (SK-OV-3 ovarian): 38.2 µM
- TGI (K-562 leukemia): > 100 µM
- TGI (U251 CNS): > 81.6 µM
- TGI (SF-268 CNS): 97.4 µM

Compound: Nc1cc(N2CCCC2)nc(=O)n1-c1ccccc1
- TGI (K-562 leukemia): > 100 µM
- TGI (U251 CNS): > 100 µM

Compound: O=C(CSc1nc2[nH]ncc2c(=O)[nH]1)c1ccc(Cl)cc1
- TGI (SK-OV-3 ovarian): > 100 µM
- TGI (K-562 leukemia): > 100 µM
- TGI (U251 CNS): > 100 µM
- TGI (SF-268 CNS): > 100 µM

Compound: O=c1ccn(C2OC(CO)C(O)C2[Se]c2ccccc2)c(=O)[nH]1 (centres undefined)
- TGI (SK-OV-3 ovarian): > 100 µM
- TGI (K-562 leukemia): > 100 µM
- TGI (U251 CNS): > 100 µM
- TGI (SF-268 CNS): > 100 µM

Compound: CN(C)CCN=C1Nc2ccccc2C(=S)N2CSCC12 (centres undefined)
- TGI (SK-OV-3 ovarian): > 100 µM
- TGI (K-562 leukemia): > 100 µM
- TGI (U251 CNS): > 100 µM
- TGI (SF-268 CNS): > 100 µM

Compound: c1cc2c(c(NC3=NCCO3)c1)CCC2
- TGI (SK-OV-3 ovarian): > 100 µM
- TGI (K-562 leukemia): > 100 µM
- TGI (U251 CNS): > 100 µM
- TGI (SF-268 CNS): > 100 µM

Compound: Cc1ccc(N=Nc2ccc(O)c(CN(C)C)c2)cc1
- TGI (SK-OV-3 ovarian): 85.3 µM
- TGI (K-562 leukemia): 39.6 µM
- TGI (U251 CNS): > 100 µM
- TGI (SF-268 CNS): 91.7 µM

Compound: CC1=C/C(=N\O)C(C(O)(C(F)(F)F)C(F)(F)F)C(C)(C)C1 (centres undefined)
- TGI (SK-OV-3 ovarian): > 10 µM
- TGI (K-562 leukemia): > 10 µM
- TGI (U251 CNS): > 10 µM
- TGI (SF-268 CNS): > 10 µM

Compound: N#Cc1c(N)[nH]c(=S)c(C#N)c1-c1ccccc1
- TGI (K-562 leukemia): > 100 µM
- TGI (U251 CNS): > 100 µM
- TGI (SF-268 CNS): > 100 µM

Compound: CC(C)(C)Nc1noc(=O)n1C(C)(C)C
- TGI (SK-OV-3 ovarian): > 100 µM
- TGI (K-562 leukemia): > 100 µM
- TGI (U251 CNS): > 100 µM
- TGI (SF-268 CNS): > 100 µM

Compound: O=C1NC(=O)C2(CCCCCC2)N1
- TGI (SK-OV-3 ovarian): > 100 µM
- TGI (K-562 leukemia): > 100 µM
- TGI (U251 CNS): > 100 µM
- TGI (SF-268 CNS): > 100 µM

Compound: Clc1cc(Cl)cc(C2ON=C(c3ccccc3)N2C23CC4CC(CC(C4)C2)C3)c1 (centres undefined)
- TGI (SK-OV-3 ovarian): > 10 µM
- TGI (K-562 leukemia): > 10 µM
- TGI (U251 CNS): > 10 µM
- TGI (SF-268 CNS): > 10 µM

Compound: COc1ccc(/C(O)=C/c2nc3cccnc3nc2/C=C(\O)c2ccc(OC)cc2)cc1
- TGI (SK-OV-3 ovarian): 31.7 µM
- TGI (K-562 leukemia): > 100 µM
- TGI (U251 CNS): 37.7 µM
- TGI (SF-268 CNS): 28.6 µM

Compound: CC(=O)Nc1ccc2[nH]c(-c3cccc(Cl)c3)cc(=O)c2c1
- TGI (SK-OV-3 ovarian): 68.5 µM
- TGI (U251 CNS): 23.8 µM

Compound: COC(=O)c1c(O)ccc2c1c1c(n2Cc2ccc(Cl)cc2Cl)C(=O)c2ccccc2C1=O
- TGI (SK-OV-3 ovarian): 27.6 µM
- TGI (K-562 leukemia): 22.5 µM
- TGI (U251 CNS): 24.6 µM
- TGI (SF-268 CNS): 24.6 µM

Compound: C[C@]12CC/C(=N\O)C=C1CC[C@@H]1[C@@H]2CC[C@]2(C)C(=N/O)/C(=C/c3ccc([N+](=O)[O-])cc3)C[C@@H]12
- TGI (SK-OV-3 ovarian): > 100 µM
- TGI (K-562 leukemia): 19.5 µM
- TGI (SF-268 CNS): > 100 µM

Compound: COC(=O)C1OC(O[C@H]2CC[C@]3(C)[C@H]4CC=C5[C@@H]6CC(C)(C)CC[C@]6(C(=O)OC6OCC(O)C(O)C6OC6OC(C)C(OC7OCC(O)C(OC8OCC(O)C(O)C8O)C7O)C(OC7OCC(O)C(O)C7O)C6O)CC[C@@]5(C)[C@]4(C)CC[C@H]3C2(C)C)C(O)C(OC2OCC(O)C(O)C2O)C1O (some centres undefined)
- TGI (SK-OV-3 ovarian): > 100 µM and 27.8 µM
- TGI (K-562 leukemia): 14.9 µM and 19.1 µM
- TGI (U251 CNS): > 100 µM and 20.6 µM
- TGI (SF-268 CNS): > 76.2 µM and 19.9 µM

Compound: CCCCC(Sc1cc(Cl)c(C)cc1S(=O)(=O)Nc1n[nH]c(N)n1)C(=O)OC (centres undefined)
- TGI (SK-OV-3 ovarian): > 10 µM
- TGI (K-562 leukemia): > 10 µM
- TGI (U251 CNS): > 10 µM
- TGI (SF-268 CNS): > 10 µM

Compound: CC(C)NC(=O)OCc1c(COC(=O)NC(C)C)c(-c2cc[n+](COC(=O)C(C)(C)C)cc2)n2c1CCC2
- TGI (SK-OV-3 ovarian): > 100 µM
- TGI (K-562 leukemia): > 100 µM
- TGI (U251 CNS): > 100 µM
- TGI (SF-268 CNS): > 100 µM

Compound: O=C(O)CCc1ccc2c(c1)C(=O)CC2
- TGI (SK-OV-3 ovarian): > 100 µM
- TGI (K-562 leukemia): > 100 µM
- TGI (U251 CNS): > 100 µM
- TGI (SF-268 CNS): > 100 µM

Compound: COc1ccc(OCc2ccc3nc(-c4ccccc4)c(Cl)nc3c2)cc1
- TGI (K-562 leukemia): > 100 µM
- TGI (U251 CNS): 31.6 µM
- TGI (SF-268 CNS): > 100 µM

Compound: c1ccc([P+](Cc2ccccc2C[P+](c2ccccc2)(c2ccccc2)c2ccccc2)(c2ccccc2)c2ccccc2)cc1
- TGI (SK-OV-3 ovarian): > 100 µM
- TGI (K-562 leukemia): > 100 µM
- TGI (U251 CNS): > 100 µM
- TGI (SF-268 CNS): > 100 µM

Compound: COc1cccc2c1OC(c1ccc(C#N)cc1)C([N+](=O)[O-])=C2 (centres undefined)
- TGI (SK-OV-3 ovarian): 7.67 µM
- TGI (K-562 leukemia): > 100 µM
- TGI (U251 CNS): 3.56 µM
- TGI (SF-268 CNS): 16.1 µM

Compound: CCC[C@H](NS(=O)c1ccc(C)cc1)C(C(=O)OCC)=C(c1ccccc1)c1ccccc1 (some centres undefined)
- TGI (SK-OV-3 ovarian): > 100 µM
- TGI (K-562 leukemia): > 100 µM
- TGI (U251 CNS): 33.5 µM
- TGI (SF-268 CNS): > 100 µM

Compound: Oc1ccc(N=C2CCC(=C(c3ccccc3)c3ccc(Nc4ccc(O)cc4)cc3)CC2)cc1
- TGI (SK-OV-3 ovarian): > 100 µM
- TGI (K-562 leukemia): > 100 µM
- TGI (U251 CNS): > 100 µM
- TGI (SF-268 CNS): > 100 µM

Compound: CC(NC(=O)C(N)CC(=O)O)NC(=O)C1CCC1 (centres undefined)
- TGI (SK-OV-3 ovarian): > 100 µM
- TGI (K-562 leukemia): > 100 µM
- TGI (U251 CNS): > 100 µM
- TGI (SF-268 CNS): > 100 µM

Compound: C=C(C)[C@@]1(OC(=O)c2cc([N+](=O)[O-])cc([N+](=O)[O-])c2)C[C@@H]2CCCC[C@@H]21
- TGI (SK-OV-3 ovarian): > 100 µM
- TGI (K-562 leukemia): > 100 µM
- TGI (U251 CNS): > 100 µM
- TGI (SF-268 CNS): > 100 µM

Compound: CC(=O)Nc1cc2c3c(c1)CCCN3CCC2
- TGI (SK-OV-3 ovarian): > 100 µM
- TGI (K-562 leukemia): > 100 µM
- TGI (U251 CNS): > 100 µM

Compound: CCOC(=O)[C@@]12C3C=CC(CC3)[C@]1(C(=O)c1ccccc1)C(=O)C(=O)N2c1ccccc1 (some centres undefined)
- TGI (SK-OV-3 ovarian): > 100 µM
- TGI (K-562 leukemia): > 100 µM
- TGI (U251 CNS): > 100 µM
- TGI (SF-268 CNS): > 100 µM

Compound: CCCCCCCCCCCCCCCCOCC(Cl)COP(=O)(O)OP(=O)(O)OCC1OC(n2cc(C)c(=O)[nH]c2=O)CC1O (centres undefined)
- TGI (SK-OV-3 ovarian): > 100 µM
- TGI (K-562 leukemia): > 100 µM
- TGI (U251 CNS): > 100 µM
- TGI (SF-268 CNS): > 100 µM

Compound: CN(N)c1cc(=O)[nH]c(=O)[nH]1
- TGI (SK-OV-3 ovarian): > 100 µM
- TGI (K-562 leukemia): > 100 µM
- TGI (SF-268 CNS): > 100 µM

Compound: NCCN1C(=O)CN=C(c2ccc(Cl)cc2)c2cc(Cl)ccc21
- TGI (SK-OV-3 ovarian): 47.6 µM
- TGI (K-562 leukemia): 34.8 µM
- TGI (U251 CNS): 31.5 µM
- TGI (SF-268 CNS): 30.4 µM

Compound: c1ccc(-n2nc3ccc4nonc4c3n2)cc1
- TGI (SK-OV-3 ovarian): > 100 µM
- TGI (K-562 leukemia): > 100 µM
- TGI (U251 CNS): > 100 µM
- TGI (SF-268 CNS): > 100 µM

Compound: O=C(O)c1ccc(NC(NC(=O)C(C(F)(F)F)C(F)(F)F)(C(F)(F)F)C(F)(F)F)cc1
- TGI (SK-OV-3 ovarian): > 100 µM
- TGI (K-562 leukemia): > 100 µM
- TGI (U251 CNS): > 100 µM
- TGI (SF-268 CNS): > 100 µM

Compound: CN(C)S(=O)(=O)/N=C/c1cccc(/C=N/S(=O)(=O)N(C)C)c1
- TGI (SK-OV-3 ovarian): > 100 µM
- TGI (K-562 leukemia): > 100 µM
- TGI (U251 CNS): > 100 µM
- TGI (SF-268 CNS): > 100 µM

Compound: O=C(Nc1ccccc1)N(C1=NCC(CI)S1)c1ccc(F)cc1F (centres undefined)
- TGI (SK-OV-3 ovarian): > 100 µM
- TGI (K-562 leukemia): > 100 µM
- TGI (U251 CNS): > 100 µM
- TGI (SF-268 CNS): > 100 µM

Compound: COC(=O)/C=C1/CCC(C)(C(=O)NS(=O)(=O)c2ccc(C)cc2)C1(C)C (centres undefined)
- TGI (SK-OV-3 ovarian): > 100 µM
- TGI (K-562 leukemia): > 100 µM
- TGI (U251 CNS): > 100 µM
- TGI (SF-268 CNS): > 100 µM
